Measurements from patent US9023861B2, “Anticancer combination of artemisinin-based drugs and other chemotherapeutic agents” (Sigma-Tau Industrie Farmaceutiche Riunite, S.p.A., priority 2009, dated 2015).

Key:
NCI-H460 = test: Synergistic interaction with DHA, combination index (Chou-Talalay, SRB); type: cell-based; details: drug in combination with DHA (1.0-20 μM), DHA 2 h before, drug 72 h
Method: (§1) Tumour cells were treated for 2 h with DHA prior to exposure to further chemotherapeutic agents for 72 h. Cell survival was then evaluated through sulphorodamine B test. Data gathered from the various combination experiments were analyzed using Calcusyn software (Biosoft, Ferguson, Mo.) through the elaboration of isobolograms to determine if the combinations of DHA and the various chemotherapeutic agents were additive, synergistic or antagonistic.

[1] = tested on: HCT116 colon cancer cells; test: In vivo antitumour activity, s.c. xenograft in CD1 nude mice; details: DHA 200 mg/kg p.o., AZD2281 100 mg/kg i.p., qdx5/wx4w; for antitumor effect when given singularly / tolerability (body weight loss during the treatment): HCT116 xenograft mice, ABT-888 50 mg/kg; for BWL %: body weight loss; for BWL % / TVI % / TV ± SE: HCT116 xenograft, CD1 nude mice, ABT-888 50 mg/kg i.p.; for TVI %: tumour volume inhibition; for TV ± SE: tumour volume, evaluated at about 500 mm^3
Method: HCT116 colon cancer cells were inoculated subcutaneously (s.c.) in the right flank of CD1 nude mice (5×10^6/0.1 ml of Medium 199). Treatments started three days after tumour injection. Mice were subdivided (8 mice/group) in the following experimental groups:
(§2) a) Vehicle (DMSO 10%) 10 ml/kg, i.p.;
b) DHA 200 mg/kg, p.o. qdx5/wx4w;
d) AZD2281+DHA (doses and schedules as above);
e) ABT-888 50 mg/kg, i.p. qdx5/wx4w;
f) ABT-888+DHA (doses and schedules as above).
DHA was administered immediately before AZD2281 or ABT-888.
The antitumour activity was evaluated according to the protocol reported hereinabove in example 3 when tumours reached a volume of about 500 mm^3.
Body weight recording was carried out to evaluate body weight loss according to the protocol reported hereinabove in example 3.

MDA-MB436 = test: Synergistic interaction with DHA, combination index (Chou-Talalay, SRB); type: cell-based; details: drug in combination with DHA (1.0-20 μM), DHA 2 h before, drug 72 h
Method: as §1

CAPAN-1 = test: as above; type: cell-based; details: drug in combination with DHA (1.0-20 μM), DHA 2 h before, drug 72 h
Method: as §1

A431 = test: as above; type: cell-based; details: drug in combination with DHA (1.0-20 μM), DHA 2 h before, drug 72 h
Method: as §1

HCT116 [2] = test: as above; type: cell-based; details: drug in combination with DHA (1.0-20 μM), DHA 2 h before, drug 72 h
Method: as §1

MCF-7/Dx MDR = test: Anti-proliferative activity, sulphorodamine B test; type: cell-based
Method: (§3) The biological activity of DHA and ART on tumour cells survival was evaluated. The latter were seeded in 96-well tissue culture plates at approximately 10% confluence and were allowed to attach and recover for at least 24 h before being exposed to DHA or ART for 24 h at 37° C. They were then washed to remove DHA and ART and left to recover for 48 hours in medium culture. The medium culture was then removed and cells were washed three times with PBS. The plates were then incubated for on ice for 1 hour with 200 μl of PBS and 50 μl of cold 80% TCA before being washed with distilled water, dried on paper and finally at 40° C. for 5 minutes. 200 μl of 0.4% sulphorodamine B in 1% acetic acid were added and the incubation was prolonged for 30 minutes. Sulphorodamine B was removed, and the plates were washed 3 times with 1% acetic acid. They were finally dried on paper followed by standing at 40° C. for 5 minutes. Then 200 μl Tris 10 mM were added, the plates were kept under stirring for 20 minutes. Cell survival was determined as optical density at 540 nm by means of a Multiskan spectrofluorimeter. The amount of cells killed was expressed as the percentage decrease in sulphorodamine B binding compared to control cultures. IC50 were generated with their standard deviations by the ALLFIT program.

LoVo/Dx MDR = test: Anti-proliferative activity, sulphorodamine B test; type: cell-based; details: LoVo/Dx MDR; 24 h exposure, 48 h recovery
Method: as §3

MCF-7 = test: Anti-proliferative activity, sulphorodamine B test; type: cell-based; details: Homo sapiens, MCF7, 24 h exposure, 48 h recovery
Method: as §3

LoVo = test: Anti-proliferative activity, sulphorodamine B test; type: cell-based; details: Homo sapiens, 24 h exposure, 48 h recovery
Method: as §3

HCT116 [3] = test: Anti-proliferative activity, sulphorodamine B test; type: cell-based; details: Homo sapiens, HCT-116, 24 h exposure, 48 h recovery
Method: as §3

SW620 = test: Synergistic interaction with DHA, combination index (Chou-Talalay, SRB); type: cell-based; details: drug in combination with DHA (1.0-20 μM), DHA 2 h before, drug 72 h
Method: (§4) Tumour cells were grown in RPMI 1640 containing 10% foetal bovine serum and treated as described in example 1 with the exception that instead of being exposed only to ART or DHA, the cell lines were treated with the drugs reported in table 2 in combination with DHA (from 1.0 μM to 20 μM, table 2). Tumour cells were treated for 2 h with DHA prior to exposure to further chemotherapeutic agents for 72 h. Cell survival was then evaluated through sulphorodamine B test. Data gathered from the various combination experiments were analyzed using Calcusyn software (Biosoft, Ferguson, Mo.) through the elaboration of isobolograms to determine if the combinations of DHA and the various chemotherapeutic agents were additive, synergistic or antagonistic. Viability assay results (SRB) were expressed as the fraction of cells killed when exposed to a single drug or to a drug combination with respect to the untreated cells. A combination index value (CI) was determined by means of the Chou-Talalay median effect method (T-C Chou, et al., Trends Pharmacol. Sci., 1983, 4, 450), wherein synergism can be defined when CI<1 and the lower the CI parameter value, the stronger the synergism (as defined by CalcuSyn 2.0 analyzer).

A2780/DDP = test: as above; type: cell-based; details: drug in combination with DHA (1.0-20 μM), DHA 2 h before, drug 72 h
Method: as §4

[4] = tested on: NCI-H460 non-small cell lung carcinoma; test: In vivo antitumor activity, s.c. xenograft in CD1 nude mice; details: DHA 200 mg/kg p.o., AZD2281 100 mg/kg i.p., qdx5/wx3w
Method: NCI-H460 non-small cell lung carcinoma cells were inoculated subcutaneously (s.c.) in the right flank of CD1 nude mice (3×10^6/0.1 ml of Medium 199). Treatments started three days after tumour injection. Mice were subdivided (10 mice/group) in the following experimental groups:
as §2
b) DHA 200 mg/kg, p.o. qdx5/wx3w;
d) AZD2281+DHA (doses and schedules as above).
For the latter experiment DHA was administered immediately before AZD2281.
To evaluate the antitumour activity, tumour diameters were measured with a Vernier calliper according to the formula TV=d^2×D/2 where d and D are the shortest and longest diameters, respectively.
When tumours reached a volume of about 1500 mm^3, mice were sacrificed by cervical dislocation. The efficacy of the drug was assessed as the tumour volume inhibition according to the formula reported underneath: […]
Body weight recording was carried out to evaluate body weight loss as calculated in the equation underneath: […]
Wherein BW day x corresponds to the mean weight at day x of the experiment meanwhile BW day 1 corresponds to the mean weight at the first day of the experiment.

Row | SMILES | Combination index values ED50 (NCI-H460) | Combination index values ED75 (NCI-H460) | Combination index values ED90 (NCI-H460) | antitumor effect when given singularly [1] | tolerability (body weight loss during the treatment) [1] | BWL % [1] [%] | TVI % [1] [%] | TV ± SE [1] | Combination index values ED50 (MDA-MB436) | Combination index values ED75 (MDA-MB436) | Combination index values ED90 (MDA-MB436) | Combination index values ED50 (CAPAN-1) | Combination index values ED75 (CAPAN-1) | Combination index values ED90 (CAPAN-1) | Combination index values ED50 (A431) | Combination index values ED75 (A431) | Combination index values ED90 (A431) | Combination index values ED50 (HCT116 [2]) | Combination index values ED75 (HCT116 [2]) | Combination index values ED90 (HCT116 [2]) | also measured
1 | CC[C@@]1(O)C(=O)OCc2c1cc1n(c2=O)Cc2c-1nc1ccccc1c2/C=N\OCCN [7-(2-amino)-ethoxyiminomethyl-camptothecin] | 0.39 | 0.24 | 0.16 |  |  |  |  |  |  |  |  |  |  |  |  |  |  |  |  |  | 
2 | C[C@]1(c2nc3c(C(N)=O)cccc3[nH]2)CCCN1 [ABT-888] | 0.78 | 0.61 | 0.49 | None of them when given singularly did show any antitumor effect | well-tolerated | 0 | 2 | 395 ± 56 | 0.42 | 0.43 | 0.47 | 0.59 | 0.32 | 0.22 | 0.45 | 0.49 | 0.37 | 0.66 | 0.66 | 0.66 | 
3 | C[C@@H]1CC[C@H]2[C@@H](C)C(=O)O[C@@H]3O[C@@]4(C)CC[C@@H]1[C@]32OO4 [ART, artemisinin] |  |  |  |  |  |  |  |  |  |  |  |  |  |  |  |  |  |  |  |  | IC50 (MCF-7/Dx MDR; MCF7/DX, MCF-7/Dx MDR, 24 h exposure, 48 h recovery): 187 ± 70 µM; resistance index (MCF-7/Dx MDR; MCF-7/Dx MDR versus MCF-7): 4; IC50 (LoVo/Dx MDR): > 200 µM; IC50 (MCF-7): 45.8 ± 11.5 µM; IC50 (LoVo): > 200 µM; IC50 (HCT116 [3]): 257 ± 28.8 µM
4 | O=C(c1cc(Cc2n[nH]c(=O)c3ccccc23)ccc1F)N1CCN(C(=O)C2CC2)CC1 [AZD2281] | 0.62 | 0.48 | 0.42 | None of them when given singularly did show any antitumor effect | well-tolerated | 1 | 18 | 328 ± 52 | 0.28 | 0.30 | 0.68 | 0.35 | 0.49 | 0.73 | 0.37 | 0.02 | 0.02 | 0.36 | 0.34 | 0.31 | Combination index values ED50 (SW620): 0.60; Combination index values ED75 (SW620): 0.55; Combination index values ED90 (SW620): 0.66; Combination index values ED50 (A2780/DDP): 0.63; Combination index values ED75 (A2780/DDP): 0.68; Combination index values ED90 (A2780/DDP): 0.63; antitumor effect when given singularly ([4]; NCI-H460 xenograft mice): no antitumor effect; tolerability (body weight loss during the treatment) ([4]; NCI-H460 xenograft mice): well-tolerated; BWL % ([4]; body weight loss, NCI-H460 xenograft, CD1 nude mice): 1%; TVI % ([4]; tumour volume inhibition, NCI-H460 xenograft, CD1 nude mice): 1%; TV ± SE ([4]; tumour volume, NCI-H460 xenograft, CD1 nude mice, sacrifice at about 1500 mm^3): 1603 ± 171
5 | N.N.O=C([O-])C1(C(=O)[O-])CCC1.[Pt+2] [Carboplatin, carboplatin] | 0.53 | 0.71 | 0.95 |  |  |  |  |  |  |  |  |  |  |  |  |  |  |  |  |  | 
